The test system of test [1] is HER-2-E0771 mammary tumour cells. Put plainly: Tumour growth of HER-2-E0771 mammary tumours in HER-2 TG mice after adoptive transfer of HER-2 CAR T cells, with MSI-1436 treatment. It is filed as in vivo. Particulars: MSI-1436 5 mg/kg intraperitoneally on days 1, 4, 7, 10, 13, 16 and 19 post adoptive transfer of total 20×10^6 HER-2 CAR T cells; versus saline; no IL-2; female HER-2 TG mice. As for the experimental part:
HER-2-E0771 mammary tumour cells (2×10^5) were injected into the fourth inguinal mammary fat pads of female HER-2 TG mice. Seven days after tumour injection HER-2 TG mice received total body irradiation (4 Gy) followed by the adoptive transfer of total 20×10^6 HER-2 CAR T cells (=6×10^6 viable mCherry^+HER2 CAR^+CD8^+CD44^hiCD62L^hi T cells) generated from Ptp1b^fl/fl versus Lck-Cre;Ptp1b^fl/fl splenocytes; mice were not administered IL-2. Mice were treated with PTP1B specific allosteric inhibitor MSI-1436 (5 mg/kg intraperitoneally) or saline on days 1, 4, 7, 10, 13, 16 and 19 post adoptive transfer and tumour growth was monitored. Representative results (means±SEM) from at least two independent experiments are shown. Significance was determined using 2-way ANOVA Test; *p<0.05 ****p<0.0001.
HER-2-E0771 mammary tumour cells (2×10^5) were injected into the fourth inguinal mammary fat pads of female HER-2 TG mice. […] Mice were treated with PTP1B specific allosteric inhibitor MSI-1436 (5 mg/kg intraperitoneally) or saline on days 1, 4, 7, 10, 13, 16 and 19 post adoptive transfer and tumour growth was monitored. […] Significance was determined using 2-way ANOVA Test; *p<0.05, ****p<0.0001.

Test [2] shares this test system. Put plainly: Tumour growth of HER-2-E0771 mammary tumours in HER-2 TG mice after adoptive transfer of control or Ptpn2-/- HER-2 CAR T cells, with MSI-1436 treatment. It counts as in vivo. Particulars: MSI-1436 5 mg/kg intraperitoneally on days 1, 4 and 7 post adoptive transfer of total 5×10^6 control or Ptpn2-/- HER-2 CAR T cells; versus saline; female HER-2 TG mice. How it is done:
HER-2-E0771 mammary tumour cells (2×10^5) were injected into the fourth inguinal mammary fat pads of female HER-2 TG mice. Seven days after tumour injection HER-2 TG mice received total body irradiation (4 Gy) followed by the adoptive transfer of total 5×10^6 HER-2 CAR T cells (=0.8×10^6 viable mCherry^+HER-2 CAR^+CD8^+CD44^hiCD62L^hi T cells) control (ctrl) or Ptpn2^−/− HER-2 CAR CD8 T cells (PTPN2 had been deleted by CRISPR-RNP). HER-2 mice were treated with MSI-1436 (5 mg/kg intraperitoneally) or saline on days 1, 4, and 7 post adoptive transfer and tumour growth was monitored. Significance in was determined using 2-way ANOVA Test; ****p<0.0001.

`CC(C)[C@@H](CC[C@@H](C)[C@H]1CC[C@H]2[C@@H]3[C@H](O)C[C@H]4C[C@@H](NCCCNCCCCNCCCN)CC[C@]4(C)[C@H]3CC[C@]12C)OS(=O)(=O)O` [MSI-1436, Trodusquemine]: in test [1], the “tumour growth (tumour-specific activity of HER2 CAR T cells in vivo)” value is listed as “Enhances the Tumour-Specific Activity of HER2 CAR T Cells In Vivo”. The “tumour growth (activity of CAR T cells in vivo)” value in test [2] is reported as “‘supercharges’ CAR T cells in vivo”.

The record behind these values is US20230355670A1, “Methods of activating cytotoxic leukocytes using PTP1B and PTPN2 inhibitors” (Monash University, priority 2019, published 2023).
